Experimental data: patent publication US20180318311A1, “TRICYCLIC 2-QUINOLINONES AS ANTIBACTERIALS” (priority 2017, published 2018)
In brackets after ≈: the same amount, converted by molar mass.

Key:
Assay type in all cases: cell-based
[1] = test system: P. aeruginosa NB52019, wild-type PAO1 strain; assay: MIC by broth microdilution, P. aeruginosa NB52019; conditions: Pseudomonas aeruginosa, CAMHB, 35° C., 20 hours, read-out: Antibacterial activity (MIC) NB52019
Summary of the method: (§1)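 MIC in μg/mL taken as the lowest concentration with no visible growth, checked by 600 nm reading after 20 h at 35°C, ambient air. Strains tested per CLSI microdilution in cation-adjusted Mueller-Hinton broth at about 5×10^5 CFU/mL, compounds as two-fold series, 1% DMSO final.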

[2] = test system: S. aureus NB01080 fluoroquinolone-resistant clinical isolate; assay: MIC by broth microdilution, S. aureus NB01080; conditions: Staphylococcus aureus, CAMHB, 35° C., 20 hours, read-out: Antibacterial activity (MIC) NB01080
Summary of the method: as §1

[3] = test system: S. aureus ATCC 49951 (NB01006); assay: MIC by broth microdilution, S. aureus NB01006; conditions: Staphylococcus aureus, ATCC49951, CAMHB, 35° C., 20 hours, read-out: Antibacterial activity (MIC) NB01006
Summary of the method: as §1

[4] = test system: E. coli ATCC 25922 (NB27001); assay: MIC by broth microdilution, E. coli NB27001; conditions: Escherichia coli, ATCC25922, CAMHB, 35° C., 20 hours, read-out: Antibacterial activity (MIC) NB27001
Summary of the method: as §1

[5] = test system: S. aureus NB01006-AVR005, gyrA (S84L), grlA (580F) and grlB (E471K); assay: microbe, parasite or virus in culture; conditions: Staphylococcus aureus, 20 h, read-out: Antibacterial activity (MIC) NB01006-AVR005
Summary of the method: as §1

[6] = test system: S. pneumoniae ATCC 25922 (NB07001); assay: MIC by broth microdilution, S. pneumoniae NB07001; conditions: Streptococcus pneumoniae, ATCC25922, 20 h, read-out: Antibacterial activity (MIC) NB07001
Summary of the method: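 CAMHB, ~5×10^5 CFU/mL, 2-fold serial dilutions (final DMSO 1%), 35° C, ambient air, 20 h. Read OD600 plus visual check; MIC = lowest conc. with no visible growth, μg/mL.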

[7] = test system: E. faecalis ATCC 29212 (NB04001); assay: MIC by broth microdilution, E. faecalis NB04001; conditions: Enterococcus faecalis, ATCC29212, CAMHB, 35° C., 20 hours, read-out: Antibacterial activity (MIC) NB04001
Summary of the method: as §1

| Compound | MIC [1] [µg/mL] | MIC [2] [µg/mL] | MIC [3] [µg/mL] | MIC [4] [µg/mL] | MIC [5] [µg/mL] | MIC [6] [µg/mL] | MIC [7] [µg/mL] |
| --- | --- | --- | --- | --- | --- | --- | --- |
| CC[C@H]1COc2c(N3CC[C@@H](C4(N)CC4)C3)c(F)cc3cc(C(=O)O)c(=O)n1c23 [Example 1.19, (S)-10-((R)-3-(1-aminocyclopropyl)pyrrolidin-1-yl)-3-ethyl-9-fluoro-5-oxo-2,3-dihydro-5H-[1,4]oxazino[2,3,4-ij]quinoline-6-carboxylic acid] | > 32 | 1 to 32 (≈ 2.49 to 79.7 µM) | 1 to 32 (≈ 2.49 to 79.7 µM) | > 32 | > 32 | < 1 | 1 to 32 (≈ 2.49 to 79.7 µM) |
| NC1([C@@H]2CCN(c3c(F)cc4cc(C(=O)O)c(=O)n5c4c3OCC5)C2)CC1 [Example 1.20, (R)-10-(3-(1-aminocyclopropyl)pyrrolidin-1-yl)-9-fluoro-5-oxo-2,3-dihydro-5H-[1,4]oxazino[2,3,4-ij]quinoline-6-carboxylic acid] | > 32 | 1 to 32 (≈ 2.68 to 85.7 µM) | 1 to 32 (≈ 2.68 to 85.7 µM) | > 32 | > 32 | 1 to 32 (≈ 2.68 to 85.7 µM) | 1 to 32 (≈ 2.68 to 85.7 µM) |
| C[C@@H]1COc2c(N3CC[C@@H](C4(N)CC4)C3)c(F)cc3cc(C(=O)O)c(=O)n1c23 [Example 1.21, (R)-10-((R)-3-(1-aminocyclopropyl)pyrrolidin-1-yl)-9-fluoro-3-methyl-5-oxo-2,3-dihydro-5H-[1,4]oxazino[2,3,4-ij]quinoline-6-carboxylic acid] | > 32 | > 32 | 1 to 32 (≈ 2.58 to 82.6 µM) | > 32 | > 32 | 1 to 32 (≈ 2.58 to 82.6 µM) | > 32 |
| C[C@@H]1Cn2c(=O)c(C(=O)O)cc3cc(F)c(N4CC[C@@H](C5(N)CC5)C4)c(c32)O1 [Example 1.22, (R)-10-((R)-3-(1-aminocyclopropyl)pyrrolidin-1-yl)-9-fluoro-2-methyl-5-oxo-2,3-dihydro-5H-[1,4]oxazino[2,3,4-ij]quinoline-6-carboxylic acid] | > 32 | 1 to 32 (≈ 2.58 to 82.6 µM) | 1 to 32 (≈ 2.58 to 82.6 µM) | > 32 | > 32 | 1 to 32 (≈ 2.58 to 82.6 µM) | 1 to 32 (≈ 2.58 to 82.6 µM) |
| C[C@H]1Cn2c(=O)c(C(=O)O)cc3cc(F)c(N4CC[C@@H](C5(N)CC5)C4)c(c32)O1 [Example 1.23, (S)-10-((R)-3-(1-aminocyclopropyl)pyrrolidin-1-yl)-9-fluoro-2-methyl-5-oxo-2,3-dihydro-5H-[1,4]oxazino[2,3,4-ij]quinoline-6-carboxylic acid] | > 32 | > 32 | > 32 | 1 to 32 (≈ 2.58 to 82.6 µM) | > 32 | 1 to 32 (≈ 2.58 to 82.6 µM) | > 32 |
| C[C@H]1CCOc2c(N3CC[C@@H](C4(N)CC4)C3)c(F)cc3cc(C(=O)O)c(=O)n1c23 [Example 1.24, (S)-11-((R)-3-(1-aminocyclopropyl)pyrrolidin-1-yl)-10-fluoro-4-methyl-6-oxo-3,4-dihydro-2H,6H-[1,4]oxazepino[2,3,4-ij]quinoline-7-carboxylic acid] | > 32 | 1 to 32 (≈ 2.49 to 79.7 µM) | < 1 | 1 to 32 (≈ 2.49 to 79.7 µM) | 1 to 32 (≈ 2.49 to 79.7 µM) | < 1 | < 1 |
| C[C@H]1COc2c(N3Cc4cccc(F)c4C3)c(F)cc3cc(C(=O)O)c(=O)n1c23 [Example 1.25, (S)-9-fluoro-10-(4-fluoroisoindolin-2-yl)-3-methyl-5-oxo-2,3-dihydro-5H-[1,4]oxazino[2,3,4-ij]quinoline-6-carboxylic acid] | > 32 | < 1 | < 1 | > 32 | > 32 | 1 to 32 (≈ 2.51 to 80.3 µM) | 1 to 32 (≈ 2.51 to 80.3 µM) |
| C[C@H]1COc2c(N3CCC(C)(CN)C3)c(F)cc3cc(C(=O)O)c(=O)n1c23 (stereo partly drawn) [Example 1.26, (3S)-10-(3-(aminomethyl)-3-methylpyrrolidin-1-yl)-9-fluoro-3-methyl-5-oxo-2,3-dihydro-5H-[1,4]oxazino[2,3,4-ij]quinoline-6-carboxylic acid] | > 32 | 1 to 32 (≈ 2.66 to 85.2 µM) | 1 to 32 (≈ 2.66 to 85.2 µM) | 1 to 32 (≈ 2.66 to 85.2 µM) | > 32 | 1 to 32 (≈ 2.66 to 85.2 µM) | 1 to 32 (≈ 2.66 to 85.2 µM) |
| C[C@H]1COc2c(N3CC[C@@H](C4(N(C)C)CC4)C3)c(F)cc3cc(C(=O)O)c(=O)n1c23 [Example 1.27, (S)-10-((R)-3-(1-(dimethylamino)cyclopropyl)pyrrolidin-1-yl)-9-fluoro-3-methyl-5-oxo-2,3-dihydro-5H-[1,4]oxazino[2,3,4-ij]quinoline-6-carboxylic acid] | > 32 | 1 to 32 (≈ 2.41 to 77 µM) | 1 to 32 (≈ 2.41 to 77 µM) | 1 to 32 (≈ 2.41 to 77 µM) | > 32 | < 1 | 1 to 32 (≈ 2.41 to 77 µM) |
| C[C@H]1COc2c(N3CCC4(CC3)CC(N)C4)c(F)cc3cc(C(=O)O)c(=O)n1c23 [Example 1.30, (S)-10-(2-amino-7-azaspiro[3.5]nonan-7-yl)-9-fluoro-3-methyl-5-oxo-2,3-dihydro-5H-[1,4]oxazino[2,3,4-ij]quinoline-6-carboxylic acid] | > 32 | > 32 | 1 to 32 (≈ 2.49 to 79.7 µM) | > 32 | > 32 | 1 to 32 (≈ 2.49 to 79.7 µM) | 1 to 32 (≈ 2.49 to 79.7 µM) |
| C[C@H]1COc2c(N3Cc4cncnc4C3)c(F)cc3cc(C(=O)O)c(=O)n1c23 [Example 1.31, (S)-10-(5,7-dihydro-6H-pyrrolo[3,4-d]pyrimidin-6-yl)-9-fluoro-3-methyl-5-oxo-2,3-dihydro-5H-[1,4]oxazino[2,3,4-ij]quinoline-6-carboxylic acid] | > 32 | 1 to 32 (≈ 2.62 to 83.7 µM) | < 1 | 1 to 32 (≈ 2.62 to 83.7 µM) | > 32 | < 1 | 1 to 32 (≈ 2.62 to 83.7 µM) |
| C[C@H]1COc2c(N3CC[C@@H](C(C)(C)O)C3)c(F)cc3cc(C(=O)O)c(=O)n1c23 [Example 1.34, (S)-9-fluoro-10-((R)-3-(2-hydroxypropan-2-yl)pyrrolidin-1-yl)-3-methyl-5-oxo-2,3-dihydro-5H-[1,4]oxazino[2,3,4-ij]quinoline-6-carboxylic acid] | > 32 | > 32 | 1 to 32 (≈ 2.56 to 82 µM) | > 32 | > 32 | > 32 | > 32 |
| C[C@H]1COc2c(N3CC[C@H](C4(N)CC4)C3)c(F)cc3cc(C(=O)O)c(=O)n1c23 [Example 1.35, (S)-10-((S)-3-(1-aminocyclopropyl)pyrrolidin-1-yl)-9-fluoro-3-methyl-5-oxo-2,3-dihydro-5H-[1,4]oxazino[2,3,4-ij]quinoline-6-carboxylic acid] | > 32 | 1 to 32 (≈ 2.58 to 82.6 µM) | 1 to 32 (≈ 2.58 to 82.6 µM) | 1 to 32 (≈ 2.58 to 82.6 µM) | > 32 | 1 to 32 (≈ 2.58 to 82.6 µM) | 1 to 32 (≈ 2.58 to 82.6 µM) |
| CN[C@@H](C)[C@@H]1CCN(c2c(F)cc3cc(C(=O)O)c(=O)n4c3c2OC[C@@H]4C)C1 [Example 1.36, (S)-9-fluoro-3-methyl-10-((R)-3-((S)-1-(methylamino)ethyl)pyrrolidin-1-yl)-5-oxo-2,3-dihydro-5H-[1,4]oxazino[2,3,4-ij]quinoline-6-carboxylic acid] | > 32 | < 1 | < 1 | 1 to 32 (≈ 2.57 to 82.2 µM) | 1 to 32 (≈ 2.57 to 82.2 µM) | < 1 | < 1 |
| C[C@H]1COc2c(N3CC4CNCC4C3)c(F)cc3cc(C(=O)O)c(=O)n1c23 (stereo partly drawn) [Example 1.37, (3S)-9-fluoro-10-(hexahydropyrrolo[3,4-c]pyrrol-2(1H)-yl)-3-methyl-5-oxo-2,3-dihydro-5H-[1,4]oxazino[2,3,4-ij]quinoline-6-carboxylic acid] | > 32 | > 32 | > 32 | > 32 | > 32 | > 32 | > 32 |
